Patent publication US11673877B2 (priority 2017, dated 2023)
Values after ≈ are worked out from the molar mass of the structure shown. Where two headings read alike, the source gives them in different places.

Columns and labels:
[1] = for water activity at which the form is the preferred form: slurry in water/DMSO mixtures, 2 days
Procedure: Powder samples were prepared in a low background Si holder using light manual pressure to keep the sample surfaces flat and level with the reference surface of the sample holder. Each sample was analyzed from 2 to 40° 2θ using a continuous scan of 6° 2θ per minute with an effective step size of 0.02° 2θ. Unless otherwise noted, XPRD studies were performed at room temperature and room humidity.
Slurry experiments designed to provide a range of water activities were carried out in solvent mixtures containing water and dimethylsulfoxide (Table 1). […] The samples were analyzed while wet to avoid changes, such as the hydrate converting to the anhydrate, from drying.

[2] = for hygroscopicity from DVS curve: 5 to 95% RH; for solid form by XRPD after the DVS experiment: after adsorption/desorption cycle 5-95-5% RH
Procedure: DVS analyses were carried out TA Instruments Q5000 Dynamic Vapor Sorption analyzer. The instrument was calibrated with standard weights and a sodium bromide standard for humidity. Samples were analyzed at 25° C. with a maximum equilibration time of 60 minutes in 10% relative humidity (RH) steps from 5 to 95% RH (adsorption cycle) and from 95 to 5% RH (desorption cycle).
After the experiment the samples were analyzed by XRPD.

physchem = details: aqueous solution, aqueous buffer
[3] = tested on: cancer cells with mutant BRCA-1 and BRCA-2; details: read-out: inhibition of proliferation CC50; cited from earlier work
PARP = details: read-out: inhibition of PARP activity EC50; whole cell assay; cited from earlier work
[4] = solid form, no method given

NC(=O)c1cccc2cn(-c3ccc([C@@H]4CCCNC4)cc3)nc12 [Form III, 2-{4-[(3S)-piperidin-3-yl]phenyl}-2H-indazole-7-carboxamide]
water activity at which the form is the preferred form [1]: ≤ 0.11 | hygroscopicity from DVS curve ([2]; 25° C.): very hygroscopic | solid form by XRPD after the DVS experiment [2]: converted to the monohydrate | DVS weight gain ([2]; up to 95% RH, 25° C.): approximately 15.8%

NC(=O)c1cccc2cn(-c3ccc([C@@H]4CCCNC4)cc3)nc12 [Niraparib, 2-{4-[(3S)-piperidin-3-yl]phenyl}-2H-indazole-7-carboxamide]
solubility (physchem): 700 to 1100 µg/mL (≈ 2180 to 3430 µM) | CC50 [3]: 10 to 100 nM | EC50 (PARP): […]

Cc1ccc(S(=O)(=O)O)cc1.NC(=O)c1cccc2cn(-c3ccc([C@@H]4CCCNC4)cc3)nc12 [niraparib tosylate, 2-{4-[(3S)-piperidin-3-yl]phenyl}-2H-indazole-7-carboxamide tosylate]
XRPD Result ([1]; 0 % water in DMSO, water activity 0, 2 days): anhydrate | XRPD Result ([1]; 17.2 % water in DMSO, water activity 0.22, 2 days): hydrate | XRPD Result ([1]; 27.6 % water in DMSO, water activity 0.38, 2 days): hydrate | XRPD Result ([1]; 43.3 % water in DMSO, water activity 0.60, 2 days): hydrate | XRPD Result ([1]; 82.8 % water in DMSO, water activity 0.84, 2 days): hydrate | XRPD Result ([1]; 100.0 % water, water activity 1.00, 2 days): hydrate

NC(=O)c1cccc2cn(-c3ccc([C@@H]4CCCNC4)cc3)nc12 [2-{4-[(3S)-piperidin-3-yl]phenyl}-2H-indazole-7-carboxamide, reference compound]
hygroscopicity [4]: highly hygroscopic

Cc1ccc(S(=O)(=O)O)cc1.NC(=O)c1cccc2cn(-c3ccc([C@@H]4CCCNC4)cc3)nc12 [Niraparib tosylate monohydrate, 2-{4-[(3S)-piperidin-3-yl]phenyl}-2H-indazole 7-carboxamide 4-methylbenzenesulfonate hydrate (1:1.1)]
water activity at which the form is the preferred form [1]: ≥ 0.22 | hygroscopicity from DVS curve ([2]; 25° C.): not hygroscopic | solid form by XRPD after the DVS experiment [2]: remained unchanged | hygroscopicity [4]: non-hygroscopic
